Source: PMC2733134, “A novel hydroxyfuroic acid compound as an insulin receptor activator - structure and activity relationship of a prenylindole moiety to insulin receptor activation” (Journal of Biomedical Science, 2009)
Values joined by “and” are separate entries in the source; they are usually repeats but may differ in a detail not shown here. Identical values can stand only once. Like-named read-outs stand apart in the source and are kept apart here.

Key:
human insulin receptor = biological target: T1, human insulin receptor (Homo sapiens, UniProt P06213); experiment: Insulin receptor activation assay (CHO cells overexpressing human insulin receptor, Ab-3 capture, tyrosine kinase activity); format: cell-based; details: for Study 2, cpm, phosphoryl incorporation by tyrosine kinase activities / Study 1, cpm, phosphoryl incorporation by tyrosine kinase activities: hydroxyfuroic acid compounds 100 μM, insulin 10 nM; for % activation, tyrosine kinase activity compared to 10 nM insulin stimulation (Study 2) / % activation, tyrosine kinase activity compared to 10 nM insulin stimulation (Study 1): test concentration 100 μM
T1 construct: expressed in transfected cells; host or cells: CHO cells (gift of Dr. Richard Roth, Stanford University)
Protocol: The insulin receptor activation assay is based on the assay described by Zhang et al. with minor modifications. Briefly, approximately 100,000 CHO cells overexpressing human recombinant insulin receptor were suspended in 100 μl of Ham's F-12 medium containing 10% fetal bovine serum (FBS) and seeded into each well of a 96-well plate. Cells were incubated at 37°C with 5% CO2 aeration overnight. CHO cells were rinsed with phosphate buffered saline (PBS) 3 times and starved in serum free Ham's F-12 medium for 2 hours before being stimulated with desired concentration of insulin or test compound for 20 minutes. Test compounds were predissolved in DMSO as 100× stocks and serially diluted when necessary. Stimulated CHO cells were then rinsed 3 times with PBS and lysed in 60 μl of lysis buffer. Fifty μl of the lysate was transferred to a well on a Flexible Assay Plate that was precoated with Ab-3 antibody recognizing the β-subunit of insulin receptor. The well was then rinsed 3 times with Tris buffered saline (TBS) containing 0.1% Tween20 and thrown dried by hand before 10 μl of tyrosine kinase reaction mixture (50 mM HEPES, pH7.4, 5 mM MgCl2, 5 mM MnCl2, 1 mg/mL polyGlu/Tyr and 250,000 cpm γ-P^33 ATP/well) was added. The reaction was carried out at 25°C for 40 minutes and terminated by adding 50 μl ice cold 100 mM phosphoric acid. Fifty μl of the stopped reaction mixture was then transferred to an inch square P81 paper. The P81 paper was air dried and then rinsed in Millipore water 5 times to remove leftover radioactive ATP and product ADP. Five mL of scintillation cocktail was added to the paper before the count was read in a liquid scintillation counter.
(§1) The 50% effective or inhibition concentrations were determined with the standard curve analysis of SigmaPlot 8.02. The nonlinear regression equation is y = min+(max-min)/(1+(x/EC50)^Hill Slope) where y is the observed responses; x is the dose concentrations; max and min are approximated by the program automatically during the calculation.
To validate the insulin receptor activation assay, dose response curve of bovine insulin was determined. […] In subsequent experiments, we routinely included 1, 10, and 100 nM insulin as standard reference. […] For simplicity, the efficacies of hydroxyfuroic acid compounds were expressed as percentage of activities comparing to the response provided by 10 nM insulin stimulation in parallel. To distinguish human insulin receptor kinase from other tyrosine kinases in CHO cells, Ab-3, a human insulin receptor β-subunit specific monoclonal antibody, was used to absorb insulin receptor from the CHO cell lysate, so the radioactivity catalyzed by captured tyrosine kinase is attributable to insulin receptor tyrosine kinase activity.

EGF receptor (ErbB1) [1] = biological target: T2, EGF receptor (ErbB1) (Homo sapiens, UniProt P00533); experiment: EGF receptor (ErbB1) tyrosine kinase activity assay; format: biochemical; details: Fig. 6B
T2 construct: purchased R&D systems (Minneapolis, MN)
Protocol: The reaction condition of EGF receptor (ErbB1) was similar to that of IGF-1 receptor reaction except 0.04 μg/μl polyGlu/Tyr substrate and 0.3 ng/μl EGF receptor (ErbB1) were used, and the reaction time was 15 minutes. All other conditions or processes were the same. The EGF receptor tyrosine kinase reaction was carried out with subsaturating concentrations of substrates for better sensitivity to activator or inhibitor influence.
as §1

FGF receptor 3 = biological target: T3, FGF receptor 3 (Homo sapiens, UniProt P22607); experiment: FGF receptor 3 tyrosine kinase activity assay; format: biochemical; details: Fig. 6C
T3 construct: purchased R&D systems (Minneapolis, MN)
Protocol: The reaction condition of FGF receptor 3 was similar to that of EGF receptor except 0.1 μg/μl polyGlu/Tyr substrate and 0.05 ng/μl FGF-receptor 3 were used instead. All other conditions or processes were the same. The FGF receptor 3 tyrosine kinase reaction was carried out with subsaturating concentrations of substrates for better sensitivity to activator or inhibitor influence.
as §1

[2] = biological target: T4, Recombinant human IGF-1 receptor (Homo sapiens, UniProt P08069); experiment: IGF-1 receptor tyrosine kinase activity assay; format: biochemical; details: mid μM of compound, Fig. 6A
T4 construct: purchased R&D systems (Minneapolis, MN)
Protocol: The reaction was carried out at pH7.0 in the presence of 50 mM HEPES, 5 mM MgCl2, 0.01 μg/μl polyGlu/Tyr substrate, 5 mM DTT, 250,000 cpm radioactive ATP, and 0.4 ng/μl IGF-1R tyrosine kinase with a final volume of 100 μl at 37°C for 10 minutes. The IGF-1 receptor tyrosine kinase reaction was carried out with subsaturating concentrations of substrates for better sensitivity to activator or inhibitor influence. Test compound D-410639 was predissolved in DMSO as 20× stock. The reaction was stopped by the addition of 100 μl of 25 mM EDTA (pH8), and 85 μl of the stopped reaction mix was blotted on an inch square P81 paper. P81 paper was air dried before rinsed 5 times in Millipore water to remove non-protein phosphorus. Five mL scintillation cocktail was added to the P81 paper before the counts were read with a liquid scintillation counter.
as §1

CHO cells = experiment: in vitro; format: cell-based; details: Chinese hamster, 24 h
Protocol: (§2) Approximately 5,000 CHO cells suspended in 100 μl D-MEM containing 10% FBS were seeded in each well of a 96-well plate overnight before the cytotoxicity assay. Test compounds were predissolved as 10× solution in 10% DMSO, 10% ethanol, 80% PBS and 10 μl of this 10× test compound solution were added to each well. After 24 hours incubation, medium containing test compound was removed by aspiration and 3 rinses of PBS. One hundred μl of serum medium was replenished before 20 μl methylthiazolyldiphenyl-tetrazolium bromide (MTT, 2.5 mg/mL) and 1 μl phenazine methosulfate (PMS, 50 μM) was added to each well before a 3-hour further incubation at 37°C. Optical density at 450 nm was measured with an ELISA reader. LC50 is defined as the concentration of compound that causes 50% drop of cell viability in this test.

in vitro = format: cell-based; details: Chinese hamster, LC50, cytotoxicity
Protocol: as §2

EGF receptor (ErbB1) [3] = tested on: EGF receptor (ErbB1); parameters: method as in Zhang et al. [19]; details: ref Zhang et al. [19]; cited from earlier work
db/db mice = tested on: db/db mice; parameters: method as in PMID 10320380, PMID 11237209; details: cited from earlier work
insulin receptor = details: cited from earlier work
[4] = side by side comparison, Fig. 3, read-out: EC50, insulin receptor tyrosine kinase activation
[5] = read-out: EC50, insulin receptor activation, reported previously

T2 sequence (P00533 25-1210): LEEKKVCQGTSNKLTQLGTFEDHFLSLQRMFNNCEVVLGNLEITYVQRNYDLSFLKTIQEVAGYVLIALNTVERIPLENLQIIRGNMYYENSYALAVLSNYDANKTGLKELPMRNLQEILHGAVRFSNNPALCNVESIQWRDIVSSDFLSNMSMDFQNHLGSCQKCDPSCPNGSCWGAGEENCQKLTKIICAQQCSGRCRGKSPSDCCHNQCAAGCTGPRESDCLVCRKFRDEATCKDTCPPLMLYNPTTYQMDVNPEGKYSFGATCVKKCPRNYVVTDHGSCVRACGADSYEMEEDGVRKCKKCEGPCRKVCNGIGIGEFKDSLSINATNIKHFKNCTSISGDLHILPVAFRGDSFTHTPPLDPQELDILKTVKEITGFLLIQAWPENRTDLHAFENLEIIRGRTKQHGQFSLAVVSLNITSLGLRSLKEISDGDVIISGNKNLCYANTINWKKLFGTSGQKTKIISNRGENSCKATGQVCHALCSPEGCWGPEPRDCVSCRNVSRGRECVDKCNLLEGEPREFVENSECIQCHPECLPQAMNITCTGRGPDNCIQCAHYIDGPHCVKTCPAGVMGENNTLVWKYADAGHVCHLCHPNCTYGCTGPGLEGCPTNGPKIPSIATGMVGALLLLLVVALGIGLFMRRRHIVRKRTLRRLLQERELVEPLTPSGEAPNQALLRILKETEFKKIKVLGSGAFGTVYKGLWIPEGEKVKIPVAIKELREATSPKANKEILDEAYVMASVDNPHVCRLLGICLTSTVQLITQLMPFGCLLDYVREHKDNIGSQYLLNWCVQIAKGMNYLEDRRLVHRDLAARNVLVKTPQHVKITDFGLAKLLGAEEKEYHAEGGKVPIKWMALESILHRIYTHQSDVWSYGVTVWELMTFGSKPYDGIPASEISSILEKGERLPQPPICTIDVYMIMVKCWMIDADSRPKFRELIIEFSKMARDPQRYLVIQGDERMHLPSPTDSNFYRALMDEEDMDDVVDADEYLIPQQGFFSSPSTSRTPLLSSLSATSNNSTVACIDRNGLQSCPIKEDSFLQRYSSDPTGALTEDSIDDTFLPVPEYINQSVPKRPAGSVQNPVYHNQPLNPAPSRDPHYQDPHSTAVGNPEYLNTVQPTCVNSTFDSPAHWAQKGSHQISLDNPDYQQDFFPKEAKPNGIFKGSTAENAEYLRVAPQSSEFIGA
T3 sequence (P22607 23-806): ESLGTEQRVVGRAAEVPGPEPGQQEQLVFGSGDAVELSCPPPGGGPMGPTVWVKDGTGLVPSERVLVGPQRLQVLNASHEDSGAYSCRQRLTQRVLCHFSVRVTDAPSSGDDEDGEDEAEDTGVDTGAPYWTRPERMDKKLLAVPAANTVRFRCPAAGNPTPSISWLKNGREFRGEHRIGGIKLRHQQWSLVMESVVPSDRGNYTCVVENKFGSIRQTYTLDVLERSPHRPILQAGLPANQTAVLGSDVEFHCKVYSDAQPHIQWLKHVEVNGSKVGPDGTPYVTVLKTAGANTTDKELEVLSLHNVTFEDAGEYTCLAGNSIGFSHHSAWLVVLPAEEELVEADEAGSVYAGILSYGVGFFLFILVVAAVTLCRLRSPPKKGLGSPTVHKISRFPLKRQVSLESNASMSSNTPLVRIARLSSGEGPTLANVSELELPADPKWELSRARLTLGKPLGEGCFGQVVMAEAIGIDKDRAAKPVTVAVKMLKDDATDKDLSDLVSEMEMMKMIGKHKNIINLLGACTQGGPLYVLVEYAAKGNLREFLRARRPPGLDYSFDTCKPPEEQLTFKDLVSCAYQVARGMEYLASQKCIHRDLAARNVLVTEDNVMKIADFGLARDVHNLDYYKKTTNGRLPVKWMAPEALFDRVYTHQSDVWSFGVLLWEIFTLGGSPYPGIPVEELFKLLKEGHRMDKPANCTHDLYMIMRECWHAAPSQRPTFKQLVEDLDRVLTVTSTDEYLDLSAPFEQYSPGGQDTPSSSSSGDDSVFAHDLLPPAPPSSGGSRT
T4 sequence (P08069 31-1367): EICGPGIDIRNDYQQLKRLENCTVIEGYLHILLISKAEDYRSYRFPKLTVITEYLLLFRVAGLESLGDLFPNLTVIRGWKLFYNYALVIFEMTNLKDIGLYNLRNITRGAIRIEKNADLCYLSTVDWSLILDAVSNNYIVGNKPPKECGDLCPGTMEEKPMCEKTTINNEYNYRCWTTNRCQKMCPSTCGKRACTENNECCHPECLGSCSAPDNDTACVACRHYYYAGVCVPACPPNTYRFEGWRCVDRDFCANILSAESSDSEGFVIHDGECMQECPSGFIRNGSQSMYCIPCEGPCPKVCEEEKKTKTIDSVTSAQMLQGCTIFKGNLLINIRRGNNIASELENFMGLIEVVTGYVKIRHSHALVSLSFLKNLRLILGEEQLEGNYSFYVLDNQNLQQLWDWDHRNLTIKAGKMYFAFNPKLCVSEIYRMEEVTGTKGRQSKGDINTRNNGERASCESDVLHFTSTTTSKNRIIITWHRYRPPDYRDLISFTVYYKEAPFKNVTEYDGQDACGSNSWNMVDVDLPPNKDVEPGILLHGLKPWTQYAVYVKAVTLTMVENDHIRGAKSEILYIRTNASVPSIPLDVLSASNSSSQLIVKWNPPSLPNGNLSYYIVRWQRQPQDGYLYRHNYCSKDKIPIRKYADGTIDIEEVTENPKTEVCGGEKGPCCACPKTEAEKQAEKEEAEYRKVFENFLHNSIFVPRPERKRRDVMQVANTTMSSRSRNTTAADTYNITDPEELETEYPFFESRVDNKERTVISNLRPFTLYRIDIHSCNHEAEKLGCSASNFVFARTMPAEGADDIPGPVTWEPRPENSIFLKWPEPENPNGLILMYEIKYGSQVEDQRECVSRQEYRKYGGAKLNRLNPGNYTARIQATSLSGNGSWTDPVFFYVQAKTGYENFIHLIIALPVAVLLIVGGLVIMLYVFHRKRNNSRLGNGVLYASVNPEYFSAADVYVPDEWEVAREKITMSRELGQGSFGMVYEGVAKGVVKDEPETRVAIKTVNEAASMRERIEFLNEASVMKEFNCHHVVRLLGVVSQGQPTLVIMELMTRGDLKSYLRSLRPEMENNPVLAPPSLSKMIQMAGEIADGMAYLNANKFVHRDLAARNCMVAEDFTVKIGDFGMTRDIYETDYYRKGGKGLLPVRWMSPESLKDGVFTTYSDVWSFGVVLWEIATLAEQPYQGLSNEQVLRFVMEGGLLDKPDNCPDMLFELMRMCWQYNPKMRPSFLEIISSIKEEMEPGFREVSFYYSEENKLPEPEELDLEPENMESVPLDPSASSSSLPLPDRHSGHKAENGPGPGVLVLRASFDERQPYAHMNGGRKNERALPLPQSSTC

CCCCCc1cccc2c(C(=O)c3oc(C(=O)O)c(-c4c[nH]c5ccccc45)c3O)c[nH]c12 [Compound D-410641]
Study 2, cpm, phosphoryl incorporation by tyrosine kinase activities (human insulin receptor): 792.7 cpm
% activation, tyrosine kinase activity compared to 10 nM insulin stimulation (Study 2) (human insulin receptor): 48.6%

O=C(O)c1oc(C(=O)c2c[nH]c3c(CCCCCO)cccc23)c(O)c1-c1c[nH]c2ccccc12 [Compound D-410639]
IC50 (EGF receptor (ErbB1) [1]): 1.8 µM
IC50 (FGF receptor 3): 26.5 µM
increase of IGF-1 receptor activity from the base line [2]: 60-70%
CC50 (CHO cells): 296 µM
fold less cytotoxic than DMAQ B1 (CHO cells): 128 fold
CC50 at 24 h (in vitro): ~296 µM
insulin receptor activation efficacy relative to 10 nM insulin (range over Study 1 and 2) (human insulin receptor; 100 μM, both studies): 72-89%
Study 1, cpm, phosphoryl incorporation by tyrosine kinase activities (human insulin receptor): 5590 cpm
% activation, tyrosine kinase activity compared to 10 nM insulin stimulation (Study 1) (human insulin receptor): 89.4%
Study 2, cpm, phosphoryl incorporation by tyrosine kinase activities (human insulin receptor): 1181 cpm
% activation, tyrosine kinase activity compared to 10 nM insulin stimulation (Study 2) (human insulin receptor): 72.3%
EC50 (human insulin receptor; [4]): 33 µM and 32.9 µM

O=C(O)c1sc(C(=O)c2c[nH]c3c(CCCCCO)cccc23)c(O)c1-c1c[nH]c2ccccc12 [Compound D-410640]
dose response of insulin receptor activation efficacy (human insulin receptor; normalized against 10 nM insulin, Fig. 4): levels off at 50 μM and tapers off by 100 μM

C=CC(C)(C)c1[nH]c2ccccc2c1C1=C(O)C(=O)C(c2c[nH]c3c(CC=C(C)C)cccc23)=C(O)C1=O [DMAQ B1, Demethylasterriquinone B1]
activation potential on EGF receptor (ErbB1) (EGF receptor (ErbB1) [3]): minor activation potential
effect on blood glucose (db/db mice): lower blood glucose in db/db mice
CC50 at 24 h (in vitro): 2.3 µM
EC50 (insulin receptor; [5]): 5 µM

O=C(O)c1oc(C(=O)c2c[nH]c3c(CCCC(CO)CO)cccc23)c(O)c1-c1c[nH]c2ccccc12 [Compound D-410642]
Study 2, cpm, phosphoryl incorporation by tyrosine kinase activities (human insulin receptor): 659.3 cpm
% activation, tyrosine kinase activity compared to 10 nM insulin stimulation (Study 2) (human insulin receptor): 40.4%

Cn1cc(C2=C(O)C(=O)C(c3ccccc3)=C(O)C2=O)c2ccccc21 [compound 2, phenylindolyldihydroxyquinone, reference compound]
CC50 at 24 h (in vitro): 66.5 µM
EC50 (insulin receptor; [5]): 0.3 µM
EC50 (human insulin receptor; [4]): 39 µM and 38.9 µM

O=C(O)CCCCc1cccc2c(C(=O)c3oc(C(=O)O)c(-c4c[nH]c5ccccc45)c3O)c[nH]c12 [Compound D-410643]
Study 2, cpm, phosphoryl incorporation by tyrosine kinase activities (human insulin receptor): 799 cpm
% activation, tyrosine kinase activity compared to 10 nM insulin stimulation (Study 2) (human insulin receptor): 48.9%

diisoprenylindolylasterriquinone [Compound L-767827]
insulin receptor tyrosine kinase activation potential (insulin receptor): no insulin receptor tyrosine kinase activation potential

O=C(O)c1oc(C(=O)c2c[nH]c3c(CCCCO)cccc23)c(O)c1-c1c[nH]c2ccccc12 [Compound D-410638]
% activation, tyrosine kinase activity compared to 10 nM insulin stimulation (Study 1) (human insulin receptor): 31.3%

bovine insulin: bovine insulin, standard reference of the insulin receptor activation assay
EC50 (insulin receptor; ref Liu et al. [21], read-out: EC50 of insulin, reported): 0.001 µM
Study 1, cpm, phosphoryl incorporation by tyrosine kinase activities (human insulin receptor): 6250 cpm
Study 2, cpm, phosphoryl incorporation by tyrosine kinase activities (human insulin receptor): 1632.5 cpm
EC50 (human insulin receptor; assay validation dose response curve, read-out: EC50 of bovine insulin, insulin receptor activation): ~0.0051 µM

O=C(O)c1oc(C(=O)c2c[nH]c3c(CCCO)cccc23)c(O)c1-c1c[nH]c2ccccc12 [Compound D-410637]
% activation, tyrosine kinase activity compared to 10 nM insulin stimulation (Study 1) (human insulin receptor): 18.9%

O=C(O)CCc1cccc2c(C(=O)c3oc(C(=O)O)c(-c4c[nH]c5ccccc45)c3O)c[nH]c12 [Compound D-410644]
Study 2, cpm, phosphoryl incorporation by tyrosine kinase activities (human insulin receptor): 357.3 cpm
% activation, tyrosine kinase activity compared to 10 nM insulin stimulation (Study 2) (human insulin receptor): 21.9%
